Source: US20080221086A1, “Novel Inhibitors of Glutaminyl Cyclase” (PROBIODRUG AG, priority 2006, published 2008)

target: hQC (Homo sapiens, UniProt Q16769); assay: Fluorometric assay of glutaminyl cyclase (QC) inhibition, H-Gln-βNA or H-Gln-AMC substrate; type: biochemical; settings: compound from preparative synthesis, purified by chromatography; fluorescent assay; read-out: IC50 hQC
Procedure, shortened: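 Ki values were obtained by fitting progress curves to a competitive-inhibition equation, and the rapid screen used 4 mM inhibitor with substrate at 1 KM. Both readouts coupled pyroglutamyl aminopeptidase at pH 8.0 and 30° C: H-Gln-βNA at 0.2 mM (ex/em 320/410 nm) or H-Gln-AMC (380/460 nm).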

hQC, sequence (Q16769 29-361): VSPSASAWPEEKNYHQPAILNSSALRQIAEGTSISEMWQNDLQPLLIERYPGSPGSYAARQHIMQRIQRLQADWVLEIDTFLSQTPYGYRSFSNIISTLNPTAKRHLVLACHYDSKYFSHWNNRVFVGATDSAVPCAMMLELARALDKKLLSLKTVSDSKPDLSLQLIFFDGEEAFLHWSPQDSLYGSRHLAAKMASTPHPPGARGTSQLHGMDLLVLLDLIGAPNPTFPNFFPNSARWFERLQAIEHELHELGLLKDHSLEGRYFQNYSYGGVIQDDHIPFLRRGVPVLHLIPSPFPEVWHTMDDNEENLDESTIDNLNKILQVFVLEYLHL

IC50 [nM] | Compound
27.4 | O=C1CCCN1CCC/N=C1/NC(=O)N(c2ccc3[nH]cnc3c2)C1c1ccc2c(c1)OCO2 (stereo not drawn) [Compound 168, 5-Benzo[1,3]dioxol-5-yl-1-(1H-benzoimidazol-5-yl)-4-(3-(2-oxo-pyrrolidin-1-yl)-propylimino)-imidazolidin-2-one]

same assay, conditions: read-out: IC50

IC50 [nM] | Compound
4 | O=C1CCCN1CCC/N=C1/NC(=O)N(c2ccc3[nH]cnc3c2)C1c1ccc2c(c1)OCO2 (stereo not drawn) [Compound 168, 5-Benzo[1,3]dioxol-5-yl-1-(1H-benzoimidazol-5-yl)-4-(3-(2-oxo-pyrrolidin-1-yl)-propylimino)-imidazolidin-2-one]
3100 | O=C1N/C(=N\C(Cc2ccccc2)c2ccccc2)C(C2=CCCCC2)N1c1ccc2[nH]cnc2c1 (stereo not drawn) [Compound 169, 1-(1H-Benzoimidazol-5-yl)-5-cyclohex-1-enyl-4-1,2-diphenyl-ethylimino-imidazolidin-2-one]
4 | Cc1ccc(C2/C(=N\Cc3ccc4[nH]ccc4c3)NC(=O)N2c2ccc3[nH]cnc3c2)cc1 (stereo not drawn) [Compound 170, 1-(1H-Benzoimidazol-5-yl)-4-1H-indol-5-ylmethylimino-5-p-tolyl-imidazolidin-2-one]
4 | O=C1N/C(=N\C2CCCC2)C(c2ccc3ccccc3c2)N1c1ccc2[nH]cnc2c1 (stereo not drawn) [Compound 171, 1-(1H-Benzoimidazol-5-yl)-4-cyclopentylimino-5-naphthalen-2-yl-imidazolidin-2-one]
1300 | O=C1N/C(=N/CCCc2ccccc2)C(c2cc3ccccc3s2)N1c1ccc2[nH]cnc2c1 (stereo not drawn) [Compound 172, 5-Benzobthiophen-2-yl-1-(1H-Benzoimidazol-5-yl)-4-3-phenyl-propylimino-imidazolidin-2-one]
4 | O=C1N/C(=N/Cn2nnc3ccccc32)C(c2ccc3[nH]ccc3c2)N1c1ccc2[nH]cnc2c1 (stereo not drawn) [Compound 173, 1-(1H-Benzoimidazol-5-yl)-4-benzotriazol-1-ylmethylimino-5-(1H-indol-5-yl)-imidazolidin-2-one]
400 | CC(C)/N=C1\NC(=O)N(c2ccc3[nH]cnc3c2)C1c1cccc(C#N)c1 (stereo not drawn) [Compound 174, 3-{3-(1H-Benzoimidazol-5-yl)-5-isopropylimino-2-oxo-imidazolidin-4-yl}-benzonitrile]
4900 | O=C1CCCN1CC/N=C1\NC(=S)N(c2ccc3[nH]cnc3c2)C1c1cccc(Br)c1 (stereo not drawn) [Compound 175, 1-(2-(1-(1H-benzo[d]imidazol-5-yl)-5-(3-bromophenyl)-2-thioxoimidazolidin-4-ylideneamino)ethyl)pyrrolidin-2-one]
1300 | S=C1N/C(=N/Cn2nnc3ccccc32)C(c2ccc3c(c2)OCO3)N1c1ccc2[nH]cnc2c1 (stereo not drawn) [Compound 176, 5-Benzo1,3dioxol-5-yl-1-(1H-benzoimidazol-5-yl)-4-benzotriazol-1-ylmethylimino-imidazolidine-2-thione]
4 | O=C1N/C(=N\Cc2ccccc2)C(c2cccc(Br)c2)N1c1ccc2nc[nH]c2c1 (stereo not drawn) [Compound 177, 1-(1H-benzo[d]imidazol-6-yl)-4-(benzylimino)-5-(3-bromophenyl)imidazolidin-2-one]
6700 | CC(C)C1/C(=N\C(C)(C)CC(C)(C)C)NC(=S)N1c1ccc2[nH]cnc2c1 (stereo not drawn) [Compound 178, 1-(1H-Benzoimidazol-5-yl)-5-isopropyl-4-1,1,3,3-tetramethyl-butylimino-imidazolidine-2-thione]
4000 | O=C(CN=C1NC(=O)N(c2ccc3nc[nH]c3c2)C1c1cc(Br)cc(Br)c1)N1CCSCC1 (stereo not drawn) [Compound 179, 1-(3H-Benzoimidazol-5-yl)-5-(3,5-dibromo-phenyl)-4-2-oxo-2-thiomorpholin-4-yl-ethylimino-imidazolidin-2-one]
400 | CN(C)c1ccc(C2/C(=N\Cc3cccnc3)NC(=O)N2c2ccc3[nH]cnc3c2)cc1 (stereo not drawn) [Compound 180, 1-(1H-Benzoimidazol-5-yl)-5-(4-dimethylamino-phenyl)-4-pyridin-3-ylmethylimino-imidazolidin-2-one]
1300 | CSc1ccc(C2C(=NCn3nnc4ccccc43)NC(=O)N2c2ccc3[nH]cnc3c2)cc1 (stereo not drawn) [Compound 181, 1-(1H-Benzoimidazol-5-yl)-4-benzotriazol-1-ylmethylimino-5-(4-methylsulfanyl-phenyl)-imidazolidin-2-one]
1300 | O=C(C/N=C1\NC(=S)N(c2ccc3nc[nH]c3c2)C1c1cc(Br)cs1)N1CCc2ccccc2C1 (stereo not drawn) [Compound 182, 2-(1-(1H-benzo[d]imidazol-6-yl)-5-(4-bromothiophen-2-yl)-2-thioxoimidazolidin-4-ylideneamino)-1-(3,4-dihydroisoquinolin-2(1H)-yl)ethanone]
1300 | O=C1N/C(=N\C2CCCCC2)C(c2cc(Br)cs2)N1c1ccc2[nH]cnc2c1 (stereo not drawn) [Compound 184]
400 | O=C(CN=C1NC(=S)N(c2ccc3nc[nH]c3c2)C1c1c(F)ccc(Cl)c1F)N1CCCCC1 (stereo not drawn) [Compound 185, 2-(1-(1H-benzo[d]imidazol-6-yl)-5-(3-chloro-2,6-difluorophenyl)-2-thioxoimidazolidin-4-ylideneamino)-1-(piperidin-1-yl)ethanone]
4 | O=C1N/C(=N\C2CCCC2)C(c2cc(Br)cc(Br)c2)N1c1ccc2[nH]cnc2c1 (stereo not drawn) [Compound 186, 1-(1H-Benzoimidazol-5-yl)-4-cyclopentylimino-5-(3,5-dibromo-phenyl)-imidazolidin-2-one]

IC50 [nM] | Compound
400 | O=C(CN=C1NC(=S)N(c2ccc3nc[nH]c3c2)C1c1cc(Br)cs1)N1CCCCC1 (stereo not drawn) [Compound 187, 2-(1-(1H-benzo[d]imidazol-6-yl)-5-(4-bromothiophen-2-yl)-2-thioxoimidazolidin-4-ylideneamino)-1-(piperidin-1-yl)ethanone]
6700 | Fc1ccc(Cl)c(F)c1C1/C(=N/c2c(Cl)cccc2Cl)NC(=S)N1c1ccc2nc[nH]c2c1 (stereo not drawn) [Compound 188, 1-(3H-Benzoimidazol-5-yl)-5-(3-chloro-2,6-difluoro-phenyl)-4-2,6-dichloro-phenylimino-imidazolidine-2-thione]
4000 | Cc1cccc(C2/C(=N\Cn3nnc4ccccc43)NC(=O)N2c2ccc3nc[nH]c3c2)n1 (stereo not drawn) [Compound 189, 1-(3H-Benzoimidazol-5-yl)-4-benzotriazol-1-ylmethylimino-5-(6-methyl-pyridin-2-yl)-imidazolidin-2-one]
400 | O=C1NC(=NC2CCCc3ccccc32)C(c2ccccc2Cl)N1c1ccc2[nH]cnc2c1 (stereo not drawn) [Compound 190, 1-(1H-Benzoimidazol-5-yl)-5-(2-chloro-phenyl)-4-1,2,3,4-tetrahydro-naphthalen-1-ylimino-imidazolidin-2-one]
9400 | S=C1NC(=NC2CCc3ccccc32)C(c2ccnc3ccccc23)N1c1ccc2[nH]cnc2c1 (stereo not drawn) [Compound 191, 1-(1H-Benzoimidazol-5-yl)-4-indan-1-ylimino-5-quinolin-4-yl-imidazolidine-2-thione]
3100 | O=c1c(C2/C(=N/c3cc(Cl)ccc3Cl)NC(=S)N2c2ccc3[nH]cnc3c2)coc2ccccc12 (stereo not drawn) [Compound 192, 3-{3-(1H-Benzoimidazol-5-yl)-5-2,5-dichloro-imidazolidin-4-yl}-chromen-4-one]
4900 | CC1=CC(C)C(C2/C(=N/C3CCc4ccccc43)NC(=O)N2c2ccc3[nH]cnc3c2)CC1 (stereo not drawn) [Compound 193, 1-(1H-Benzoimidazol-5-yl)-5-(2,4-dimethyl-cyclohex-3-enyl)-4-indan-1-ylimino-imidazolidin-2-one]
6700 | S=C1N/C(=N\c2cc(Cl)ccc2Cl)C(c2ccc(Cl)cc2)N1c1ccc2[nH]cnc2c1 (stereo not drawn) [Compound 194, 1-(1H-Benzoimidazol-5-yl)-5-(4-chloro-phenyl)-4-2,5-dichloro-phenylimino-imidazolidine-2-thione]
1300 | C/N=C1/NC(=O)N(c2ccc3[nH]cnc3c2)C1c1ccc2c(c1)OCO2 (stereo not drawn) [Compound 195, 5-Benzo1,3dioxol-5-yl-1-(1H-benzoimidazol-5-yl)-4-methylimino-imidazolidin-2-one]
4 | O=C1N/C(=N\C2CCCCC2)C(c2cc3c(cc2Br)OCO3)N1c1ccc2nc[nH]c2c1 (stereo not drawn) [Compound 196, 1-(3H-Benzoimidazol-5-yl)-5-(6-bromo-benzo1,3-dioxol-5-yl)-4-cyclohexylimino-imidazolidin-2-one]
9400 | CC(CC1/C(=N/C2CCCc3ccccc32)NC(=O)N1c1ccc2[nH]cnc2c1)CC(C)(C)C (stereo not drawn) [Compound 197, 1-(1H-Benzoimidazol-5-yl)-4-1,2,3,4-tetrahydro-naphthalen-1-ylimino-5-(2,4,4-trimethyl-pentyl)-imidazolidin-2-one]
4000 | O=C1N/C(=N\C2CCc3ccccc32)CN1c1ccc2[nH]cnc2c1 (stereo not drawn) [Compound 198, 1-(1H-Benzoimidazol-5-yl)-4-indan-1-ylimino-imidazolidin-2-one]
5800 | CC1=CC(C)C(C2/C(=N/C(C)(C)CC(C)(C)C)NC(=S)N2c2ccc3nc[nH]c3c2)CC1 (stereo not drawn) [Compound 200, 1-(3H-Benzoimidazol-5-yl)-5-(2,4-dimethyl-cyclohex-3-enyl)-4-1,1,3,3-tetramethyl-butylimino-imidazolidine-2-thione]
4000 | O=C(C/N=C1/NC(=O)N(c2ccc3nc[nH]c3c2)C1c1cc2c(cc1Br)OCO2)N1CCSCC1 (stereo not drawn) [Compound 201, 1-(3H-Benzoimidazol-5-yl)-5-(6-bromo-benzo1,3dioxol-5-yl)-4-2-oxo-2-thiomorpholin-4-yl-ethylimino-imidazolidin-2-one]
7600 | Fc1ccc(/N=C2\NC(=S)N(c3ccc4[nH]cnc4c3)C2c2ccnc3ccccc23)cc1 (stereo not drawn) [Compound 202, 1-(1H-Benzoimidazol-5-yl)-4-4-fluoro-phenylimino-5-quinolin-4-yl-imidazolidine-2-thione]
5800 | Cc1ccc2occ(C3/C(=N/C4CCCCC4O)NC(=S)N3c3ccc4[nH]cnc4c3)c(=O)c2c1 (stereo not drawn) [Compound 203, 3-{3-(1H-Benzoimidazol-5-yl)-5-2-hydroxy-cyclohexylimino-2-thioxo-imidazolidin-4-yl}-6-methyl-chromen-4-one]
400 | O=C1N/C(=N/Cn2nnc3ccccc32)C(c2cc3c(cc2Br)OCO3)N1c1ccc2nc[nH]c2c1 (stereo not drawn) [Compound 204, 1-(3H-Benzoimidazol-5-yl)-4-benzotriazol-1-ylmethylimino-5-(6-bromo-benzo1,3dioxol-5-yl)-imidazolidin-2-one]
